Among the data in patent publication US9073855B2, “BCL-2 selective apoptosis-inducing agents for the treatment of cancer and immune diseases” (AbbVie Inc., priority 2008, dated 2015) are Ki and EC50 values, retold here.

One test addresses GST-Bcl-2 (Homo sapiens, UniProt P10415). The test is described as follows: TR-FRET binding assay, GST-Bcl-2 with F-Bak peptide probe. To be noted: TR-FRET Binding Affinity, GST-Bcl-2, F-Bak peptide probe. The essentials: (§1)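 Displacement of a fluorescein-labelled Bak peptide from the GST-tagged protein was followed by time-resolved FRET with a terbium anti-GST donor after 3 h incubation at room temperature. Inhibition constants were calculated with Wang's equation.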

The target of another test is GST-Bcl-XL (Homo sapiens, UniProt Q07817). Kind of test: TR-FRET binding assay, GST-Bcl-XL with F-Bak peptide probe. To be noted: TR-FRET Binding Affinity, GST-Bcl-XL, F-Bak peptide probe. Put shortly:
as §1

For a further test, the system named is FL5.12/Bcl-2 cells. The test is described as follows: FL5.12/Bcl-2 cell viability assay under IL-3 withdrawal (CellTitre Glo). The class given is cell-based, murine. To be noted: Mus musculus, IL-3 withdrawn 48 hrs, then 24 hrs with compound. Put shortly: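 Bcl-2-overexpressing murine FL5.12 transfectants underwent IL-3 removal for 48 hrs before a 24 hr compound treatment. Cell viability was quantified with CellTitre Glo.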

Sequence of GST-Bcl-XL (Q07817 whole entry): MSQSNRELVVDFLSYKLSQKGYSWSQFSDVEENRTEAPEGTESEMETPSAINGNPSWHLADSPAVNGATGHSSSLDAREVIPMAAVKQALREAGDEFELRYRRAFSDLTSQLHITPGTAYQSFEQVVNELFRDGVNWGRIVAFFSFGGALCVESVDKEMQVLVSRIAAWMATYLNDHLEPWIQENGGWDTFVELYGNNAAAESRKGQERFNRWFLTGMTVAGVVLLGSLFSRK
Sequence of GST-Bcl-2 (P10415 whole entry): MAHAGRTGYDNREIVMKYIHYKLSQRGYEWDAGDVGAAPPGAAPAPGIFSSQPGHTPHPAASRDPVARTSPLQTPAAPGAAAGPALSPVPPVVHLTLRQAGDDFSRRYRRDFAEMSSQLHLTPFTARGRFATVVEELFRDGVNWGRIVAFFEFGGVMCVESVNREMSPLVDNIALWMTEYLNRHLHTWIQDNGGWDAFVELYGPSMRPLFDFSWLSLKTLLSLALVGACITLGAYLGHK

With `CC(=O)N1CCC(Nc2ccc(S(=O)(=O)NC(=O)c3ccc(N4CCN(CC5=C(c6ccc(Cl)cc6)CC(C)(C)CC5)CC4)cc3Oc3ccc4[nH]ccc4c3)cc2[N+](=O)[O-])CC1` [Example 334, N-({4-[(1-acetylpiperidin-4-yl)amino]-3-nitrophenyl}sulfonyl)-4-(4-{[2-(4-chlorophenyl)-4,4-dimethylcyclohex-1-en-1-yl]methyl}piperazin-1-yl)-2-(1H-indol-5-yloxy)benzamide], the results for the Ki on GST-Bcl-2 and on GST-Bcl-XL were 0.179 nM and greater than 660 nM, respectively. Moreover, the EC50 in the test on FL5.12/Bcl-2 cells turned out to be 65.9 nM.
As for `CC1(C)CCC(CN2CCN(c3ccc(C(=O)NS(=O)(=O)c4ccc(NC5CCN(S(C)(=O)=O)CC5)c([N+](=O)[O-])c4)c(Oc4ccc5[nH]ccc5c4)c3)CC2)=C(c2ccc(Cl)cc2)C1` [Example 335, 4-(4-{[2-(4-chlorophenyl)-4,4-dimethylcyclohex-1-en-1-yl]methyl}piperazin-1-yl)-2-(1H-indol-5-yloxy)-N-[(4-{[1-(methylsulfonyl)piperidin-4-yl]amino}-3-nitrophenyl)sulfonyl]benzamide], the values for the Ki at GST-Bcl-2 and at GST-Bcl-XL were 0.438 nM and greater than 660 nM, respectively. Further, in the test with FL5.12/Bcl-2 cells, the EC50 came to 39 nM.
`CC1(C)CCC(CN2CCN(c3ccc(C(=O)NS(=O)(=O)c4ccc(NCC5COCCO5)c([N+](=O)[O-])c4)c(Oc4ccc5[nH]ccc5c4)c3)CC2)=C(c2ccc(Cl)cc2)C1` (stereo not drawn) [Example 336, 4-(4-{[2-(4-chlorophenyl)-4,4-dimethylcyclohex-1-en-1-yl]methyl}piperazin-1-yl)-N-({4-[(1,4-dioxan-2-ylmethyl)amino]-3-nitrophenyl}sulfonyl)-2-(1H-indol-5-yloxy)benzamide]: the inhibition constant (Ki) on GST-Bcl-2 was found to be 0.105 nM; on GST-Bcl-XL it was 242 nM. Further, the EC50 in the test with FL5.12/Bcl-2 cells was 7.49 nM.
Consider `CC(=O)N1CCC(Nc2ccc(S(=O)(=O)NC(=O)c3ccc(N4CCN(CC5=C(c6ccc(Cl)cc6)CC(C)(C)CC5)CC4)cc3Oc3cccc4[nH]ccc34)cc2[N+](=O)[O-])CC1` [Example 337, N-({4-[(1-acetylpiperidin-4-yl)amino]-3-nitrophenyl}sulfonyl)-4-(4-{[2-(4-chlorophenyl)-4,4-dimethylcyclohex-1-en-1-yl]methyl}piperazin-1-yl)-2-(1H-indol-4-yloxy)benzamide], for which the figures for the inhibition constant (Ki) on GST-Bcl-2 and at GST-Bcl-XL were 0.535 nM and greater than 660 nM, respectively. The EC50 with FL5.12/Bcl-2 cells is 124 nM.
Taken in the same sequence, the figures for `CC1(C)CCC(CN2CCN(c3ccc(C(=O)NS(=O)(=O)c4ccc(NC5CCN(S(C)(=O)=O)CC5)c([N+](=O)[O-])c4)c(Oc4cccc5[nH]ccc45)c3)CC2)=C(c2ccc(Cl)cc2)C1` [Example 338, 4-(4-{[2-(4-chlorophenyl)-4,4-dimethylcyclohex-1-en-1-yl]methyl}piperazin-1-yl)-2-(1H-indol-4-yloxy)-N-[(4-{[1-(methylsulfonyl)piperidin-4-yl]amino}-3-nitrophenyl)sulfonyl]benzamide] were 0.403 nM, greater than 660 nM and 71.1 nM.
On to `O=C(NS(=O)(=O)c1ccc(NCC2CCOCC2)c([N+](=O)[O-])c1)c1ccc(N2CCN(Cc3ccc(C(F)(F)F)cc3-c3ccc(Cl)cc3)CC2)cc1Oc1ccc2[nH]ccc2c1` [Example 339, 4-(4-{[4′-chloro-5-(trifluoromethyl)-1,1′-biphenyl-2-yl]methyl}piperazin-1-yl)-2-(1H-indol-5-yloxy)-N-({3-nitro-4-[(tetrahydro-2H-pyran-4-ylmethyl)amino]phenyl}sulfonyl)benzamide], for which the results for the Ki on GST-Bcl-2 and on GST-Bcl-XL were 14.1 nM and greater than 660 nM, respectively. Moreover, the EC50 with FL5.12/Bcl-2 cells is greater than 500 nM.
`O=C(NS(=O)(=O)c1ccc(OCC2CCOCC2)c([N+](=O)[O-])c1)c1ccc(N2CCN(Cc3ccc(C(F)(F)F)cc3-c3ccc(Cl)cc3)CC2)cc1Oc1ccc2[nH]ccc2c1` [Example 340, 4-(4-{[4′-chloro-5-(trifluoromethyl)-1,1′-biphenyl-2-yl]methyl}piperazin-1-yl)-2-(1H-indol-5-yloxy)-N-{[3-nitro-4-(tetrahydro-2H-pyran-4-ylmethoxy)phenyl]sulfonyl}benzamide]: the results for the Ki on GST-Bcl-2 and at GST-Bcl-XL were 7.59 nM and greater than 660 nM, respectively. For the same compound, the EC50 in the test with FL5.12/Bcl-2 cells is greater than 500 nM.
Take `CC(C)(C)c1ccc(CN2CCN(c3ccc(C(=O)NS(=O)(=O)c4ccc(NCC5CCOCC5)c([N+](=O)[O-])c4)c(Oc4ccc5[nH]ccc5c4)c3)CC2)c(-c2ccc(Cl)cc2)c1` [Example 341, 4-{4-[(5-tert-butyl-4′-chloro-1,1′-biphenyl-2-yl)methyl]piperazin-1-yl}-2-(1H-indol-5-yloxy)-N-({3-nitro-4-[(tetrahydro-2H-pyran-4-ylmethyl)amino]phenyl}sulfonyl)benzamide]: the Ki on GST-Bcl-2 is 13 nM; on GST-Bcl-XL it was greater than 660 nM. For the same compound, the EC50 with FL5.12/Bcl-2 cells is greater than 500 nM.
The like results for `CC(C)(C)c1ccc(CN2CCN(c3ccc(C(=O)NS(=O)(=O)c4ccc(OCC5CCOCC5)c([N+](=O)[O-])c4)c(Oc4ccc5[nH]ccc5c4)c3)CC2)c(-c2ccc(Cl)cc2)c1` [Example 342, 4-{4-[(5-tert-butyl-4′-chloro-1,1′-biphenyl-2-yl)methyl]piperazin-1-yl}-2-(1H-indol-5-yloxy)-N-{[3-nitro-4-(tetrahydro-2H-pyran-4-ylmethoxy)phenyl]sulfonyl}benzamide] were, in that order, 25.8 nM, greater than 660 nM and greater than 500 nM.
The like results for `CC1(C)CCC(CN2CCN(c3ccc(C(=O)NS(=O)(=O)c4ccc(NCC(F)(F)F)c([N+](=O)[O-])c4)c(Oc4cccc5[nH]ccc45)c3)CC2)=C(c2ccc(Cl)cc2)C1` [Example 343, 4-(4-{[2-(4-chlorophenyl)-4,4-dimethylcyclohex-1-en-1-yl]methyl}piperazin-1-yl)-2-(1H-indol-4-yloxy)-N-({3-nitro-4-[(2,2,2-trifluoroethyl)amino]phenyl}sulfonyl)benzamide] were, in that order, 0.576 nM, greater than 660 nM and 54.9 nM.
With `CC1(C)CCC(CN2CCN(c3ccc(C(=O)NS(=O)(=O)c4ccc(NCC(F)(F)F)c([N+](=O)[O-])c4)c(Oc4ccc5[nH]ccc5c4)c3)CC2)=C(c2ccc(Cl)cc2)C1` [Example 344, 4-(4-{[2-(4-chlorophenyl)-4,4-dimethylcyclohex-1-en-1-yl]methyl}piperazin-1-yl)-2-(1H-indol-5-yloxy)-N-({3-nitro-4-[(2,2,2-trifluoroethyl)amino]phenyl}sulfonyl)benzamide], the results for the Ki at GST-Bcl-2 and on GST-Bcl-XL were 0.284 nM and 447 nM, respectively. Also, the EC50 with FL5.12/Bcl-2 cells worked out at 71.5 nM.
Take `CC1(C)CCC(CN2CCN(c3ccc(C(=O)NS(=O)(=O)c4cccc(C(=O)NCC5CCOCC5)c4)c(Oc4ccc5[nH]ccc5c4)c3)CC2)=C(c2ccc(Cl)cc2)C1` [Example 345, 4-(4-{[2-(4-chlorophenyl)-4,4-dimethylcyclohex-1-en-1-yl]methyl}piperazin-1-yl)-2-(1H-indol-5-yloxy)-N-[(3-{[(tetrahydro-2H-pyran-4-ylmethyl)amino]carbonyl}phenyl)sulfonyl]benzamide]: the Ki is 1.15 nM at GST-Bcl-2 and greater than 660 nM at GST-Bcl-XL. Further, the EC50 with FL5.12/Bcl-2 cells was greater than 500 nM.
Take `CC1(C)CCC(CN2CCN(c3ccc(C(=O)NS(=O)(=O)c4ccc(OC[C@H]5COCCO5)c([N+](=O)[O-])c4)c(Oc4ccc5[nH]ccc5c4)c3)CC2)=C(c2ccc(Cl)cc2)C1` [Example 346, 4-(4-{[2-(4-chlorophenyl)-4,4-dimethylcyclohex-1-en-1-yl]methyl}piperazin-1-yl)-N-({4-[(2R)-1,4-dioxan-2-ylmethoxy]-3-nitrophenyl}sulfonyl)-2-(1H-indol-5-yloxy)benzamide]: the results for the Ki on GST-Bcl-2 and at GST-Bcl-XL were 0.018 nM and 204 nM, respectively. Moreover, in the test with FL5.12/Bcl-2 cells, the EC50 was 17.5 nM.
With `CC1(C)CCC(CN2CCN(c3ccc(C(=O)NS(=O)(=O)c4ccc(OC[C@@H]5COCCO5)c([N+](=O)[O-])c4)c(Oc4ccc5[nH]ccc5c4)c3)CC2)=C(c2ccc(Cl)cc2)C1` [Example 347, 4-(4-{[2-(4-chlorophenyl)-4,4-dimethylcyclohex-1-en-1-yl]methyl}piperazin-1-yl)-N-({4-[(2S)-1,4-dioxan-2-ylmethoxy]-3-nitrophenyl}sulfonyl)-2-(1H-indol-5-yloxy)benzamide], the results for the inhibition constant (Ki) at GST-Bcl-2 and on GST-Bcl-XL were 0.243 nM and 306 nM, respectively. The EC50 with FL5.12/Bcl-2 cells was 46.8 nM.
In the case of `CC1(C)CCC(CN2CCN(c3ccc(C(=O)NS(=O)(=O)c4ccc(NCCCN5CCOCC5)c(S(=O)(=O)C(F)(F)F)c4)c(Oc4ccc5[nH]ccc5c4)c3)CC2)=C(c2ccc(Cl)cc2)C1` [Example 348, 4-(4-{[2-(4-chlorophenyl)-4,4-dimethylcyclohex-1-en-1-yl]methyl}piperazin-1-yl)-2-(1H-indol-5-yloxy)-N-({4-[(3-morpholin-4-ylpropyl)amino]-3-[(trifluoromethyl)sulfonyl]phenyl}sulfonyl)benzamide], the Ki turned out to be 0.302 nM on GST-Bcl-2 and 29.3 nM on GST-Bcl-XL. The concentration for a half-maximal effect (EC50) in the test on FL5.12/Bcl-2 cells was found to be 87.2 nM.
In the case of `CC1(C)CCC(CN2CCN(c3ccc(C(=O)NS(=O)(=O)c4ccc(NCCCN5CCOCC5)c(S(=O)(=O)C(F)(F)F)c4)c(Oc4cccc5[nH]ccc45)c3)CC2)=C(c2ccc(Cl)cc2)C1` [Example 349, 4-(4-{[2-(4-chlorophenyl)-4,4-dimethylcyclohex-1-en-1-yl]methyl}piperazin-1-yl)-2-(1H-indol-4-yloxy)-N-({4-[(3-morpholin-4-ylpropyl)amino]-3-[(trifluoromethyl)sulfonyl]phenyl}sulfonyl)benzamide], the Ki at GST-Bcl-2 amounted to 0.467 nM; on GST-Bcl-XL it was 24.2 nM. Also, the EC50 in the test with FL5.12/Bcl-2 cells turned out to be 146 nM.
